Source: patent US10173968B2, “Bishydrazone-based antifungal agents” (University of Kentucky Research Foundation, priority 2016, dated 2019)
Converted amounts (≈) assume the structure as drawn. Like-named read-outs stand apart in the source and are kept apart here.

Legend:
A. baumannii ATCC 19606 = test: Antibacterial MIC, double-dilution method; format: cell-based; details: Acinetobacter baumannii, ATCC19606, strain E, Gram-negative, read-out: MIC
In short: (§1)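 The lowest inhibitory concentration is reported from a twofold dilution series, after an initial single-concentration screen with every compound at 500 μM.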

B. subtilis 168 = test: Antibacterial MIC, double-dilution method; format: cell-based; details: Bacillus subtilis, strain A, Gram-positive
In short: as §1

E. cloacae ATCC 13047 = test: Antibacterial MIC, double-dilution method; format: cell-based; details: Enterobacter cloacae, ATCC13047, strain F, Gram-negative, read-out: MIC
In short: as §1

E. coli MC1061 = test: Antibacterial MIC, double-dilution method; format: cell-based; details: Escherichia coli, strain G, Gram-negative, read-out: MIC
In short: as §1

K. pneumoniae ATCC 27736 = test: Antibacterial MIC, double-dilution method; format: cell-based; details: Klebsiella pneumoniae, ATCC27736, strain H, Gram-negative, read-out: MIC
In short: as §1

[1] = tested on: L. monocytogenes ATCC 19115; test: Antibacterial MIC, double-dilution method; format: cell-based; details: Listeria monocytogenes, ATCC19115, strain B, Gram-positive, read-out: MIC
In short: as §1

M. smegmatis MC2-155 = test: Antibacterial MIC, double-dilution method; format: cell-based; details: Mycolicibacterium smegmatis, MC2155, strain K, mycobacterial, read-out: MIC
In short: as §1

MRSA = test: Antibacterial MIC, double-dilution method; format: cell-based; details: Staphylococcus aureus, strain C, Gram-positive, read-out: MIC
In short: as §1

P. aeruginosa ATCC 27853 = test: Antibacterial MIC, double-dilution method; format: cell-based; details: Pseudomonas aeruginosa, ATCC27853, strain I, Gram-negative, read-out: MIC
In short: as §1

S. enterica ATCC 14028 = test: Antibacterial MIC, double-dilution method; format: cell-based; details: Salmonella enterica, ATCC14028, strain J, Gram-negative, read-out: MIC
In short: as §1

VRE = test: Antibacterial MIC, double-dilution method; format: cell-based; details: Enterococcus, strain D, Gram-positive, read-out: MIC
In short: as §1

C. albicans ATCC 1003 = test: Antifungal MIC, CLSI M27-A3 microbroth dilution; format: cell-based, Candida albicans; details: Candida albicans, ATCC1003, read-out: MIC
Method: (§2) In vitro MIC testing was performed according to the CLSI M27-A3 standard microbroth dilution methodology for the susceptibility testing of yeasts with minor modifications.

C. albicans ATCC 10231 [2] = test: Antifungal MIC, CLSI M27-A3 microbroth dilution; format: cell-based, Candida albicans; details: Candida albicans, ATCC10231, C. albicans ATCC 10231, resistant to FLC, ITC, and VOR, read-out: MIC
Method: as §2

C. albicans ATCC 1237 = test: Antifungal MIC, CLSI M27-A3 microbroth dilution; format: cell-based, Candida albicans; details: Candida albicans, ATCC1237, C. albicans ATCC 1237, resistant to FLC, ITC, and VOR, read-out: MIC
Method: as §2

C. albicans ATCC 2310 = test: Antifungal MIC, CLSI M27-A3 microbroth dilution; format: cell-based, Candida albicans; details: Candida albicans, ATCC2310, C. albicans ATCC 2310, susceptible to FLC, ITC, and VOR, read-out: MIC
Method: as §2

C. albicans ATCC 2876 = test: Antifungal MIC, CLSI M27-A3 microbroth dilution; format: cell-based, Candida albicans; details: Candida albicans, ATCC2876, C. albicans ATCC 2876, susceptible to FLC, ITC, and VOR, read-out: MIC
Method: as §2

C. albicans ATCC 64124 = test: Antifungal MIC, CLSI M27-A3 microbroth dilution; format: cell-based, Candida albicans; details: Candida albicans, ATCC64124, C. albicans ATCC 64124, resistant to FLC, ITC, and VOR, read-out: MIC
Method: as §2

C. albicans ATCC 90819 = test: Antifungal MIC, CLSI M27-A3 microbroth dilution; format: cell-based, Candida albicans; details: Candida albicans, ATCC90819, C. albicans ATCC 90819, resistant to FLC, ITC, and VOR, read-out: MIC
Method: as §2

[3] = tested on: L. monocytogenes ATCC 19115 (strain B); format: cell-based, Listeria monocytogenes
Method: (§3) The bacteria were grown in MH broth at 37° C. for these experiments. […] The resulting cultures were diluted 1:1000 and grown until the culture reached ˜300,000 cfu/mL. That culture was then further diluted 1:1000 and used to determine the next round of MIC values.

MRSA (strain C) = format: cell-based, Staphylococcus aureus
Method: as §3

VRE (strain D) = format: cell-based, enterococcus
Method: as §3

[4] = tested on: P. aeruginosa ATCC 27853 (strain I); format: cell-based
Method: as §3

C. albicans ATCC 10231 [5] = test: Intracellular ROS production, DCFH-DA fluorescence assay; format: cell-based, Candida albicans; details: positive control at 1 mM, 1 h at 35° C.
Excerpt: We used the 2′,7′-dichlorodihydrofluorescein diacetate (DCFH-DA) dye as a probe to measure the production of ROS in yeast cells upon treatment with our compounds. DCFH-DA can easily cross the cell membranes and be hydrolyzed by cellular esterases to the non-fluorescent 2′,7′-dichlorodihydrofluorescein (DCFH), which can further be oxidized to the highly fluorescent 2′,7′-dichlorofluorescein (DCF) by the intracellular ROS. Five mL of RPMI 1640 medium were inoculated using a single colony of C. albicans ATCC 10231 (strain A) in a Falcon tube and grown overnight at 35° C. at 200 rpm. The overnight culture was diluted by adding 200 μL of yeast cells to 800 μL of the same medium. […] H2O2 at 1 mM was also used as a positive control. Cells were centrifuged and washed twice with PBS buffer (pH 7.2). Cells were resuspended in the same buffer and incubated with DCFH-DA (20 μg/mL) for 30 min in the dark. Afterwards, cells were centrifuged and washed with PBS buffer to remove excess DCFH-DA. Glass slides with 10-15 μL of each mixture were prepared and observed in bright field and fluorescence modes (FITC filter set, excitation and emission wavelengths of 488 and 512 nm, respectively) using a Zeiss Axovert 200M fluorescence microscope (FIG. 3).

[6] = tested on: all bacterial strains tested; test: Antibacterial MIC, summary over the panel; format: cell-based; details: read-out: MIC, span over all bacterial strains tested
Method: MIC values were determined against a variety of Gram-positive (strains A-D) and Gram-negative (E-J) bacterial and mycobacterial (K) strains using the double-dilution method, as previously published. Preliminary screening was performed using 500 μM of each compound.

[7] = after 15 serial passages at sub-inhibitory concentrations

C/C(=N\NC(=N)N)c1ccc(CCc2ccc(/C(C)=N/NC(=N)N)cc2)cc1.Cl.Cl [Compound 4D, (2E,2′E)-2,2′-((Ethane-1,2-diylbis(4,1-phenylene))bis(ethan-1-yl-1-ylidene))bis(hydrazine-1-carboximidamide) dihydrochloride]
MIC (A. baumannii ATCC 19606; converted from μM): > 226 µg/mL | MIC (A. baumannii ATCC 19606; range 0.5 to 500 μM): > 500 µM | MIC (B. subtilis 168; converted from μM): > 226 µg/mL | MIC (B. subtilis 168; range 0.5 to 500 μM): > 500 µM | MIC (E. cloacae ATCC 13047; converted from μM): > 226 µg/mL | MIC (E. cloacae ATCC 13047; range 0.5 to 500 μM): > 500 µM | MIC (E. coli MC1061; converted from μM): > 226 µg/mL | MIC (E. coli MC1061; range 0.5 to 500 μM): > 500 µM | MIC (K. pneumoniae ATCC 27736; converted from μM): > 226 µg/mL | MIC (K. pneumoniae ATCC 27736; range 0.5 to 500 μM): > 500 µM | MIC ([1]; converted from μM): 0.5 µg/mL | MIC ([1]; range 0.5 to 500 μM): 1 µM | MIC (M. smegmatis MC2-155; converted from μM): 0.5 µg/mL | MIC (M. smegmatis MC2-155; range 0.5 to 500 μM): 1 µM | MIC (MRSA; converted from μM): 0.5 to 0.9 µg/mL | MIC (MRSA; range 0.5 to 500 μM): 1 to 2 µM | MIC (P. aeruginosa ATCC 27853; converted from μM): > 226 µg/mL | MIC (P. aeruginosa ATCC 27853; range 0.5 to 500 μM): > 500 µM | MIC (S. enterica ATCC 14028; converted from μM): > 226 µg/mL | MIC (S. enterica ATCC 14028; range 0.5 to 500 μM): > 500 µM | MIC (VRE; converted from μM): 0.5 µg/mL | MIC (VRE; range 0.5 to 500 μM): 1 µM | MIC (C. albicans ATCC 1003; C. albicans ATCC 1003, converted from μg/mL): 34.6 µM | MIC (C. albicans ATCC 1003): 15.6 µg/mL | MIC (C. albicans ATCC 10231 [2]; converted from μg/mL): 17.3 µM | MIC (C. albicans ATCC 10231 [2]): 7.8 µg/mL | MIC (C. albicans ATCC 1237; converted from μg/mL): 34.6 µM | MIC (C. albicans ATCC 1237): 15.6 µg/mL | MIC (C. albicans ATCC 2310; converted from μg/mL): 69.3 µM | MIC (C. albicans ATCC 2310): 31.3 µg/mL | MIC (C. albicans ATCC 2876; converted from μg/mL): 8.6 µM | MIC (C. albicans ATCC 2876): 3.9 µg/mL | MIC (C. albicans ATCC 64124; converted from μg/mL): > 69.3 µM | MIC (C. albicans ATCC 64124): > 31.3 µg/mL | MIC (C. albicans ATCC 90819; converted from μg/mL): 17.3 µM | MIC (C. albicans ATCC 90819): 7.8 µg/mL | increase in relative MIC values [3, 7]: 8 fold | increase in relative MIC values (MRSA (strain C); [7]): 16 fold | increase in relative MIC values (VRE (strain D); [7]): 16 fold | increase in relative MIC values [4, 7]: 4 fold

OO [Compound H2O2, H2O2, reference compound]
intracellular ROS production (C. albicans ATCC 10231 [5]): induced ROS production

NCC[C@H](O)C(=O)N[C@@H]1C[C@H](N)[C@@H](O[C@H]2O[C@H](CN)[C@@H](O)[C@H](O)[C@H]2O)[C@H](O)[C@H]1O[C@H]1O[C@H](CO)[C@@H](O)[C@H](N)[C@H]1O [AMK, amikacin, reference compound]
MIC (B. subtilis 168; converted from μM): 3 to 12.2 µg/mL | MIC (B. subtilis 168; range 0.5 to 500 μM): 3.9 to 15.6 µM | MIC (E. cloacae ATCC 13047; converted from μM): 48.9 µg/mL | MIC (E. cloacae ATCC 13047; range 0.5 to 500 μM): 62.5 µM | MIC (E. coli MC1061; converted from μM): 24.5 µg/mL | MIC (E. coli MC1061; range 0.5 to 500 μM): 31.3 µM | MIC ([1]; range 0.5 to 500 μM): 3.9 µM | MIC (M. smegmatis MC2-155; converted from μM): 12.2 µg/mL | MIC (M. smegmatis MC2-155; range 0.5 to 500 μM): 15.6 µM | MIC (P. aeruginosa ATCC 27853; converted from μM): 48.9 µg/mL | MIC (P. aeruginosa ATCC 27853; range 0.5 to 500 μM): 62.5 µM | MIC (S. enterica ATCC 14028; converted from μM): 3 to 6.1 µg/mL | MIC (S. enterica ATCC 14028; range 0.5 to 500 μM): 3.9 to 7.8 µM | MIC (VRE; converted from μM): 97.7 µg/mL | MIC (VRE; range 0.5 to 500 μM): 125 µM | development of resistance (passages after which resistance developed) ([3]; up to 15 passages): 15 passages | development of resistance (passages after which resistance developed) (MRSA (strain C); up to 15 passages): 12 passages | development of resistance (passages after which resistance developed) (VRE (strain D); up to 15 passages): 3 passages | development of resistance (passages after which resistance developed) ([4]; up to 15 passages): 5 passages | MIC [6]: 3.9 to 125 µM (≈ 2.28 to 73.2 µg/mL)
